Legend:
[1] = test system: Du145 human prostate cancer cells; experiment: Long-term growth curve with repeated electroporation, Du145; format: cell-based; conditions: 1.6 μM miRNA electroporated, repeated on days 7 and 14, day 20
Method: The inventors assessed the therapeutic effect of hsa-miR-15a for prostate cancer by using the Du145 human prostate cancer cell line, derived from a brain metastasis (Stone et al., 1978). The inventors conducted growth curve experiments in the presence of miRNA for up to 20 days. Since in vitro transfections of naked interfering RNAs, such as synthetic miRNA, are transient by nature and compromised by the dilution of the miRNA during ongoing cell divisions, miRNA was administered at multiple time points (Bartlett et al., 2006; Bartlett et al., 2007). To accommodate miRNA delivery into a large quantity of cells, the inventors employed the electroporation method for delivery of hsa-miR-15a or negative control miRNA into Du145 human prostate cancer cells. Briefly, 0.5×10^6 Du145 cells were electroporated with 1.6 μM hsa-miR-15a or negative control using the BioRad Gene Pulser Xcell™ instrument (BioRad Laboratories Inc., Hercules, Calif., USA), seeded and propagated in regular growth medium. Experiments were carried out in triplicates. When the control cells reached confluence (days 7 and 14), cells were harvested, counted and electroporated again with the respective miRNAs. To ensure similar treatment of both conditions as well as to accommodate exponential growth, the cell numbers used for the second and third electroporation were titrated down to the lowest count. The population doubling was calculated from these electroporation events using the formula PD=ln(Nf/N0)/ln2 and adjusting for the fact that approximately 72% of newly seeded cells adhere to the plate. Cell counts were extrapolated and plotted on a linear scale (FIG. 10). Arrows represent electroporation days. Standard deviations are included in the graphs.
To evaluate the therapeutic activity of hsa-miR-147 over an extended period of time, the inventors conducted growth curve experiments in the presence of miRNA for up to 21 days. Since in vitro transfections of naked interfering RNAs, such as synthetic miRNA, are transient by nature and compromised by the dilution of the oligo during ongoing cell divisions, miRNA was administered at multiple time points (Bartlett et al., 2006; Bartlett et al., 2007). To accommodate miRNA delivery into a large quantity of cells, the inventors employed the electroporation method to delivery hsa-miR-147 or negative control miRNA into PC3 and Du145 human prostate cancer cells. […] When the control cells reached confluence (days 7 and 14), cells were harvested, counted and electroporated again with the respective miRNAs. […] The population doubling was calculated from these electroporation events using the formula PD=ln(Nf/N0)/ln2 and adjusting for the fact that approximately 72% of newly seeded cells adhere to the plate. […]

A549 and H1299 cells = experiment: Dose-dependent Alamar Blue proliferation assay (0 pM to 3 nM); format: cell-based, human; conditions: for % proliferation: normalized to mock-transfected cells (0 pM miRNA)
Method: The inventors determined sensitivity and specificity of hsa-miR-147 by administering hsa-miR-147 or negative control miRNA at increasing concentrations, ranging from 0 pM to 3 nM. Delivery of miRNA and cellular proliferation of A549 and H1299 cells was assessed as described above. Alamar Blue values were normalized to values obtained from mock-transfected cells (0 pM=100% proliferation). As shown in FIG. 3 and Table 8, increasing amounts of negative control miRNA had no effect on cellular proliferation of A549 or H1299 cells. In contrast, the growth-inhibitory phenotype of hsa-miR-147 is dose-dependent and correlates with increasing amounts of hsa-miR-147. Hsa-miR-147 induces a therapeutic response at concentrations as low as 300 pM.

[2] = test system: human prostate cancer cells PPC-1, Du145 and RWPE2; experiment: Alamar Blue proliferation assay, average over prostate cancer cell lines; format: cell-based; conditions: 30 nM, 4-7 days post-transfection; average of PPC-1, Du145, RWPE2; vs negative control miRNA (100%)
Excerpt: (§1) The inventors assessed the therapeutic effect of hsa-miR-147 for prostate cancer by using 4 individual human prostate cancer cell lines. To measure cellular proliferation of prostate cancer cells, the following prostate cancer cell lines were used: PPC-1 and PC3, derived from a bone metastasis; Du145, derived from a brain metastasis; RWPE2, derived from prostate cells immortalized by human papillomavirus 18 and transformed by the K-RAS oncogene (Bello et al., 1997; Stone et al., 1978; Brothman et al., 1991). PC3, PPC-1, and Du145 cells lack expression of the prostate-specific antigen (PSA) and are independent of androgen receptor (AR) signaling. In contrast, RWPE2 cells test positive for PSA and AR.
(§2) PPC-1, Du145 and RWPE2 cells were transfected with synthetic hsa-miR-147 (Pre-miR™-hsa-miR-147, Ambion cat. no. AM17100) or negative control miRNA (NC; Pre-miR™ microRNA Precursor Molecule-Negative Control #2; Ambion cat. no. AM17111) in a 96-well format using a lipid-based transfection reagent. […] Proliferation was assessed 4-7 days post-transfection using Alamar Blue™ (Invitrogen) following the manufacturer's instructions. […] Fluorescent light units (FLU) were measured after 3 hours, normalized to the control, and plotted as percent change in proliferation. […]

PPC-1 cells = experiment: Alamar Blue proliferation assay, PPC-1; format: cell-based, human; conditions: 30 nM, normalized to negative control miRNA (100% proliferation)
Excerpt: as §1, §2

Substance: hsa-miR-147: Synthetic pre-miR-147 (Ambion AM17100; Dharmacon in vivo); mature sequence GUGUGUGGAAAUGCUUCUGC, MIMAT0000251, SEQ ID NO:114 (synthetic pre-miR (Ambion/Dharmacon), chemistry not given here; listed as Homo sapiens)
- cells relative to cells electroporated with negative control miRNA [1]: 2.90%
- inhibition of Du145 cell growth ([1]; relative to proliferation of control cells (100%)): 97.1%
- % proliferation (A549 and H1299 cells; A549 Cells, 3 pM): 104.77%
- % proliferation (A549 and H1299 cells; A549 Cells, 30 pM): 99.22%
- % proliferation (A549 and H1299 cells; A549 Cells, 300 pM): 88.24%
- % proliferation (A549 and H1299 cells; A549 Cells, 3,000 pM): 75.78%
- % proliferation (A549 and H1299 cells; H1299 Cells, 3 pM): 93.08%
- % proliferation (A549 and H1299 cells; H1299 Cells, 30 pM): 88.20%
- % proliferation (A549 and H1299 cells; H1299 Cells, 300 pM): 81.82%
- % proliferation (A549 and H1299 cells; H1299 Cells, 3,000 pM): 69.70%
- lowest concentration inducing a therapeutic response (A549 and H1299 cells; concentrations 0 pM to 3 nM, normalized to mock-transfected cells): 300 pM
- inhibition of cellular proliferation, on average [2]: 27.48%
- % proliferation (PPC-1 cells): 76.98%

Reference: US20090131356A1, “miR-15, miR-26, miR-31, miR-145, miR-147, miR-188, miR-215, miR-216, miR-331, mmu-miR-292-3P REGULATED GENES AND PATHWAYS AS TARGETS FOR THERAPEUTIC INTERVENTION” (ASURAGEN, INC., priority 2006, published 2009)
